How the values were obtained:
[1] = target: T1, Angiotensin-converting enzyme (Oryctolagus cuniculus, UniProt P12822); assay: Inhibitory activity against rabbit lung angiotensin-converting enzyme(ACE)
T1 sequence (P12822 whole entry): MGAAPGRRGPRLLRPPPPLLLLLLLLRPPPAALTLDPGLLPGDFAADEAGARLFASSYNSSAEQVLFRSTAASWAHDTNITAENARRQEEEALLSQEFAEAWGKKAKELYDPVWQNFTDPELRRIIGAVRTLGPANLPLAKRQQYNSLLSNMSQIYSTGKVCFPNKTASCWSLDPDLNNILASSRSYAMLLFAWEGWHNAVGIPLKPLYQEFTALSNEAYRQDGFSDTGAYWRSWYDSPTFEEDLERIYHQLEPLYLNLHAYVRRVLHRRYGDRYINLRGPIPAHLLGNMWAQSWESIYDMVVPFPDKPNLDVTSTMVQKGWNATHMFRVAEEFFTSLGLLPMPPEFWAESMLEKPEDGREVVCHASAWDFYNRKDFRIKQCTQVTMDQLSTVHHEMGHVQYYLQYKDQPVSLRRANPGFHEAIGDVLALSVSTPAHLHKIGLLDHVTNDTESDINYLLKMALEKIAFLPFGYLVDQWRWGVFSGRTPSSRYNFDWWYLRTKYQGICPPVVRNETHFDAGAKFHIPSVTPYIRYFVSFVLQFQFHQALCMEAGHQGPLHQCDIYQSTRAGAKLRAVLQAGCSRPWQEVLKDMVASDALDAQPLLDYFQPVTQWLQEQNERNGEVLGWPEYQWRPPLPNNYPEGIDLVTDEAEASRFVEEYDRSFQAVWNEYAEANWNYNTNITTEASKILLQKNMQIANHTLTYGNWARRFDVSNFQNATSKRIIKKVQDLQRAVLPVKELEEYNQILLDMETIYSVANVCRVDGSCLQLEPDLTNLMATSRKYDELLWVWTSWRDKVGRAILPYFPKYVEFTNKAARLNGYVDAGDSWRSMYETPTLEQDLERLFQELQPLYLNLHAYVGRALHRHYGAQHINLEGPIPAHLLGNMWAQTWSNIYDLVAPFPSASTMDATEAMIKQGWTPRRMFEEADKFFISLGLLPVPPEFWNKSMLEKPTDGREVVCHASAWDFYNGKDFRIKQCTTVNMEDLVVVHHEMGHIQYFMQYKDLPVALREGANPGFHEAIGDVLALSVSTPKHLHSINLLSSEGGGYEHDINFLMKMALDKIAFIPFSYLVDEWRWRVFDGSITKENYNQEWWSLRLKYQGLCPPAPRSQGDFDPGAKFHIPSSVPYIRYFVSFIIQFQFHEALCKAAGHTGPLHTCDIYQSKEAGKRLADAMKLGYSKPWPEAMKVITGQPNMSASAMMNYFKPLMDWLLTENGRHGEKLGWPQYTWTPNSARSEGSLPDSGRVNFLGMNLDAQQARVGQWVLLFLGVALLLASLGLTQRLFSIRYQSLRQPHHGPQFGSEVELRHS

[2] = Inhibitory activity against aminopeptidase
[3] = target: T2, Leukotriene A-4 hydrolase (Homo sapiens, UniProt P09960); assay: Inhibitory activity against recombinant human Leukotriene A4 hydrolase
T2 sequence (P09960 whole entry): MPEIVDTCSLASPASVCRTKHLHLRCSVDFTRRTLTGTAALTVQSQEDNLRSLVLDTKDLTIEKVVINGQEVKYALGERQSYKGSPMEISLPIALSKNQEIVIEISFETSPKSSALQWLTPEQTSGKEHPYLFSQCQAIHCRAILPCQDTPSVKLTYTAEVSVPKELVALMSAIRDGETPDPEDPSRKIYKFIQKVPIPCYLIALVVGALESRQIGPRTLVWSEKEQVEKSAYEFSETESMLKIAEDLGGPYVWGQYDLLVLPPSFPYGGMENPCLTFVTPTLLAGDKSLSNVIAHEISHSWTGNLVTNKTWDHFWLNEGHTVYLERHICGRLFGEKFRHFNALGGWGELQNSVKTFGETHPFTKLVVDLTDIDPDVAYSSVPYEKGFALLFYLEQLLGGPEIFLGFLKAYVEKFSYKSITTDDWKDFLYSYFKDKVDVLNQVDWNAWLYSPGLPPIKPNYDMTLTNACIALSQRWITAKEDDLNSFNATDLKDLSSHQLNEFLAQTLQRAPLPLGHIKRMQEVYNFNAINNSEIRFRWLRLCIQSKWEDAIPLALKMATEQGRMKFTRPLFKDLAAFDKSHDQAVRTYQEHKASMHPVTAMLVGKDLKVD

[4] = target: T3, Neprilysin (Oryctolagus cuniculus, UniProt P08049); assay: Inhibitory activity against rabbit kidney neutral endopeptidase (NEP)
T3 sequence (P08049 whole entry): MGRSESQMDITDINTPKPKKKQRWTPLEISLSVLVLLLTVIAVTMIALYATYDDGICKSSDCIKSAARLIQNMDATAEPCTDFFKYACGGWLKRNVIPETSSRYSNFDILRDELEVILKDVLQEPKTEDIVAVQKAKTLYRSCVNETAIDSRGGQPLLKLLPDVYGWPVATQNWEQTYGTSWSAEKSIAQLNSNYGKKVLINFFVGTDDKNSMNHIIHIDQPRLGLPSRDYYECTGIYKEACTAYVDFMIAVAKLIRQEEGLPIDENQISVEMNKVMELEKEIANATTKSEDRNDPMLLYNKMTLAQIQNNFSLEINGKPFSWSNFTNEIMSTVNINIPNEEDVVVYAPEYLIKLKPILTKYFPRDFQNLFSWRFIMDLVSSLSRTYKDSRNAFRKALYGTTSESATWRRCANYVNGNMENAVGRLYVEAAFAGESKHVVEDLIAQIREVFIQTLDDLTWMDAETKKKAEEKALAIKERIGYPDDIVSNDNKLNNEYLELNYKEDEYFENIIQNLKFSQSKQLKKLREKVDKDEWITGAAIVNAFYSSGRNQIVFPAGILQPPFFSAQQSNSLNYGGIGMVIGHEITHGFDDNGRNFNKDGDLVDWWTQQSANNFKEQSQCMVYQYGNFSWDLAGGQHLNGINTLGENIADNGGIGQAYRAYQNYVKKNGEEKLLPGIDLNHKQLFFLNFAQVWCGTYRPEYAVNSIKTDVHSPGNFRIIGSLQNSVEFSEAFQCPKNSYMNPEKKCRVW

[5] = target: T1, Angiotensin-converting enzyme; assay: Inhibitory activity against rabbit lung angiotensin-converting enzyme (ACE)
[6] = target: T2, Leukotriene A-4 hydrolase; assay: Inhibitory activity against LTA 4 hydrolase in epoxide hydrolase assay
[7] = target: T2, Leukotriene A-4 hydrolase; assay: Inhibitory activity against LTA 4 hydrolase in aminopeptidase assay

| IC50 [1] | Ki [6] | Ki [7] | Compound | IC50 [2] | IC50 [3] | IC50 [4] | IC50 [5] |
| --- | --- | --- | --- | --- | --- | --- | --- |
| > 100000 nM |  |  | C[C@H](NC(=O)[C@@H](CC(=O)O)Cc1ccccc1)C(=O)O | 140 nM | 300 nM |  |  |
|  |  |  | O=C(C[C@@H](Cc1ccccc1)C(=O)N1CCC[C@H]1C(=O)O)NO | 18 nM | 30 nM | > 36000 nM | 3000 nM |
| 20000 nM |  |  | C[C@H](NC(=O)[C@@H](CCC(=O)NO)Cc1ccccc1)C(=O)O |  | > 10000 nM |  |  |
| 20000 nM |  |  | CSCC[C@@H](NC(=O)[C@@H](CC(=O)NO)Cc1ccccc1)C(=O)O | 2 nM | 12 nM | 61000 nM |  |
|  |  |  | C[C@H](NC(=O)[C@@H](CCS)CC1CCCCC1)C(=O)O |  | > 3000 nM | > 100000 nM |  |
| > 100000 nM |  |  | C[C@@H](C(=O)O)N(C)C(=O)[C@@H](CC(=O)NO)Cc1ccccc1 | 1 nM | 3 nM | 3400 nM |  |
|  | 18 nM | 10 nM | C[C@H](NC(=O)[C@@H](CC(=O)NO)Cc1ccccc1)C(=O)O [KELATORPHAN] | 7 nM | 5 nM | 46 nM | > 10000 nM |
|  |  |  | O=C(C[C@@H](Cc1ccccc1)C(=O)N[C@@H](Cc1c[nH]c2ccccc12)C(=O)O)NO | 5 nM | 10 nM |  |  |
| 200 nM |  |  | C[C@H](NC(=O)C(CS)Cc1ccccc1)C(=O)O (stereo not given in full) | > 10000 nM | > 3000 nM |  |  |
|  |  |  | C[C@H](CS)C(=O)N1CCC[C@H]1C(=O)O [CAPTOPRIL] | 2000 nM | 10000 nM |  |  |
|  |  |  | O=C(C[C@@H](Cc1ccccc1)C(=O)N1CCC[C@@H]1C(=O)O)NO | 15000 nM | 20000 nM |  | > 100000 nM |

| Compound | IC50 [1] | Ki [6] | Ki [7] | IC50 [2] | IC50 [3] | IC50 [4] | IC50 [5] |
| --- | --- | --- | --- | --- | --- | --- | --- |
| C[C@H](NC(=O)[C@@H](CC(=O)NO)CC1CCCCC1)C(=O)O | > 100000 nM |  |  | 10 nM | 5 nM | 2000 nM |  |
| O=C(C[C@@H](Cc1ccccc1)C(=O)N1CCCC[C@H]1C(=O)O)NO | 40000 nM |  |  | 10 nM | 8 nM | 17000 nM |  |
| O=C(C[C@@H](Cc1ccccc1)C(=O)N1CCCC[C@@H]1C(=O)O)NO | > 100000 nM |  |  | 2300 nM | 1800 nM |  |  |
| O=C(C[C@@H](Cc1ccccc1)C(=O)N[C@@H](CC1CCCCC1)C(=O)O)NO | > 100000 nM |  |  | 42 nM | 10 nM | 104000 nM |  |

— ChEMBL document CHEMBL1128059, “Kelatorphan and related analogs: potent and selective inhibitors of leukotriene A4 hydrolase” (Bioorg Med Chem Lett, 1995)
